In patent US20230000842A1, “METHODS OF TREATING CARTILAGE DISORDERS THROUGH INHIBITION OF CLK AND DYRK” (SAMUMED, LLC, priority 2019, published 2023):

Legend:
CLK2 kinase = CLK2 kinase (Homo sapiens, UniProt P49760); assay: CLK2 kinase activity assay (Z-lyte FRET); assay type: biochemical; details: Z-lyte Ser/Thr 6 peptide, 60 μM ATP, 1 h at room temperature;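 further: FRET read-out as coumarin to fluorescein emission ratio, unphosphorylated peptide as 0% and phosphorylated peptide as 100% controls, duplicate reactions, non-linear regression fit of dose-response curves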
CLK3 kinase = CLK3 kinase (Homo sapiens, UniProt P49761); assay: CLK3 kinase activity assay (Z-lyte FRET); assay type: biochemical; details: Z-lyte Ser/Thr 18 peptide, 156 μM ATP, 1 h at room temperature;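 further: kinase activity read as coumarin/fluorescein emission ratio by FRET, unphosphorylated peptide as 0% and phosphorylated peptide as 100% control, values from non-linear regression of dose-response curves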
[1] = system: primary human mesenchymal stem cells (hMSCs); assay: Chondrogenesis screening using primary human mesenchymal stem cells; assay type: cell-based; details: Homo sapiens, Mesenchymal stem cells, hMSC chondrogenesis; for Emax: maximum activity relative to TGF-β3 (10 ng/mL) positive control, read-out: Max. Activity as % TGF-β3 activity; for EC50: concentration required to induce 50% levels of chondrogenesis with TGF-β3 as positive control, read-out: Conc (nM) of 50% TGF-β3 activity
Outline: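 Derived values are EC50 for 50% chondrogenesis, maximal activity and the dose giving it. These come from nodule area in passage 3–6 primary hMSCs, expressed as fold change over the mean of 3 same-plate DMSO wells, 2–3 replicates per concentration. TGF-β3 served as positive control.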

[2] = system: Wnt pathway activity (SW480 colon carcinoma cells stably expressing the Sp5-Luc reporter); assay: Wnt pathway activity screening assay (Sp5-Luc reporter gene assay); details: Homo sapiens, SW480, Table 4; SW480 cells stably expressing Sp5-Luc reporter, 10-point dose-response from 10 μM, 36 to 48 hours

Sequence of CLK3 kinase (P49761 whole entry): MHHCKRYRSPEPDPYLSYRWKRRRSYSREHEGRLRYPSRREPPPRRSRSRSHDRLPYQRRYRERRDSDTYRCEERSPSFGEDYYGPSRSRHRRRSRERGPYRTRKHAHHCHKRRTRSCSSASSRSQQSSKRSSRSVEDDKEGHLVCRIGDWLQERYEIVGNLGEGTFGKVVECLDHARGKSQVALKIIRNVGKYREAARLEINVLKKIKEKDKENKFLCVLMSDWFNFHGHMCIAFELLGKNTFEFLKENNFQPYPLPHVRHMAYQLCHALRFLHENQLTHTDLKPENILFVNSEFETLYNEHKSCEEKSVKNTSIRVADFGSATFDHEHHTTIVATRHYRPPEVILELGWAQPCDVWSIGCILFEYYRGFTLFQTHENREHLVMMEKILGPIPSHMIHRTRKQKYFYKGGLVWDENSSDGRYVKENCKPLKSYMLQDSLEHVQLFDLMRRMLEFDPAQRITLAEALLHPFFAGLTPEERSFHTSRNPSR
Sequence of CLK2 kinase (P49760 whole entry): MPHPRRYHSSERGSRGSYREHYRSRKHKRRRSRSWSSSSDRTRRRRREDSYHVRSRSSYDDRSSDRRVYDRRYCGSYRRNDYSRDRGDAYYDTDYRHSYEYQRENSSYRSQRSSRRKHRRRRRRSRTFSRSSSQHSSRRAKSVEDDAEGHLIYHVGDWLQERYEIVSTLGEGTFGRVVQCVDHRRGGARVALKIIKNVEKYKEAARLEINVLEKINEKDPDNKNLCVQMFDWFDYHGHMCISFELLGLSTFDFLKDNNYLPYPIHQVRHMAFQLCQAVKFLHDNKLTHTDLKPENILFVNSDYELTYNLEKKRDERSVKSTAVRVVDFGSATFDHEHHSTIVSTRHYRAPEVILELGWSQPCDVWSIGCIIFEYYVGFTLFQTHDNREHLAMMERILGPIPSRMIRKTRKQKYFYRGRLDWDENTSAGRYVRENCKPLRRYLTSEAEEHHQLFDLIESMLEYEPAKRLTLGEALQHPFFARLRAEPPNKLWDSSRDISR

Structure (SMILES)	EC50 (CLK2 kinase) [nM]	EC50 (CLK3 kinase) [nM]	Emax [1] [%]	EC50 [2] [nM]	EC50 [1] [nM]
Fc1ccc(-c2cncc3[nH]c(-c4n[nH]c5ncc(-c6cncnc6)cc45)cc23)cc1 [compound 319]	6	817	23.8	594	
Nc1cncc(-c2ccc3[nH]nc(-c4cc5c(-c6ccccc6F)ccnc5[nH]4)c3c2)c1 [compound 320]	9	33	23.5	131	
Nc1cncc(-c2cnc3[nH]nc(-c4cc5c(-c6ccccc6F)nccc5[nH]4)c3c2)c1 [compound 321]	7	67	86	197	30
Nc1cncc(-c2cnc3[nH]nc(-c4cc5c(-c6ccccc6F)ccnc5[nH]4)c3c2)c1 [compound 322]	6	66	27.6	745	
Nc1cncc(-c2cc3c(-c4cc5c(-c6ccccc6F)nccc5[nH]4)n[nH]c3cn2)c1 [compound 323]	2	59	117	224	10
Nc1cncc(-c2cc3c(-c4cc5c(-c6ccccc6F)cncc5[nH]4)n[nH]c3cn2)c1 [compound 324]	6	205	15.5	1630	
CC(C)CC(=O)Nc1cncc(-c2ccc3[nH]nc(-c4cc5c(-c6ccccc6F)nccc5[nH]4)c3n2)c1 [compound 326]	10	144	36.3	605	
CC(C)(C)CC(=O)Nc1cncc(-c2cc3c(-c4cc5c(-c6ccccc6F)nccc5[nH]4)n[nH]c3cn2)c1 [compound 327]	10	414	54.3	1030	30
O=C(Nc1cncc(-c2cnc3[nH]nc(-c4cc5c(-c6ccccc6F)nccc5[nH]4)c3c2)c1)C1CC1 [compound 328]	6	47	78.1	321	30
O=C(Nc1cncc(-c2cnc3[nH]nc(-c4cc5c(-c6ccccc6F)cncc5[nH]4)c3c2)c1)C1CC1 [compound 329]	8	42	52.1	390	
O=C(Nc1cncc(-c2ccc3[nH]nc(-c4cc5c(-c6ccccc6F)nccc5[nH]4)c3n2)c1)C1CC1 [compound 330]	12	109	24.8	642	
O=C(Nc1cncc(-c2ccc3[nH]nc(-c4cc5c(-c6ccccc6F)nccc5[nH]4)c3c2)c1)C1CCCC1 [compound 331]	15	158	70.8	418	
CC(C)Nc1cncc(-c2cnc3[nH]nc(-c4cc5c(-c6ccccc6F)nccc5[nH]4)c3c2)c1 [compound 332]	6	196	75.8	435	10
CCNCc1cncc(-c2cnc3[nH]nc(-c4cc5c(-c6ccccc6F)cncc5[nH]4)c3c2)c1 [compound 334]	2	89	37.3	2300	
CCNCc1cncc(-c2cc3c(-c4cc5c(-c6ccccc6F)ccnc5[nH]4)n[nH]c3cn2)c1 [compound 335]	19	2310	270	> 10000	30
CN(C)Cc1cncc(-c2cnc3[nH]nc(-c4cc5c(-c6ccccc6F)cncc5[nH]4)c3c2)c1 [compound 336]	3	107	60.9	2490	
CN(C)Cc1cncc(-c2ccc3[nH]nc(-c4cc5c(-c6ccccc6F)cncc5[nH]4)c3n2)c1 [compound 337]	2	109	50.6	1370	30
Fc1ccccc1-c1nccc2[nH]c(-c3n[nH]c4cnc(-c5cncc(CN6CCCC6)c5)cc34)cc12 [compound 338]	5	222	69.4	1980	10
Fc1ccccc1-c1cncc2[nH]c(-c3n[nH]c4ncc(-c5cn[nH]c5)cc34)cc12 [compound 339]	7	99	51.1	375	
Fc1ccccc1-c1nccc2[nH]c(-c3n[nH]c4cnc(-c5cn[nH]c5)cc34)cc12 [compound 340]	10	785	89.2	30.5	10

Structure (SMILES)	EC50 (CLK2 kinase) [nM]	EC50 (CLK3 kinase) [nM]	Emax [1] [%]	EC50 [2] [nM]	EC50 [1] [nM]
c1cncc(-c2ccc3[nH]nc(-c4cc5c(-c6cccnc6)ccnc5[nH]4)c3c2)c1 [compound 342]	4	90	16.7	> 10000	
c1cncc(-c2cc3c(-c4cc5c(-c6cccnc6)cncc5[nH]4)n[nH]c3cn2)c1 [compound 343]	3	468	76.4	1340	100
c1cncc(-c2ccc3[nH]nc(-c4cc5c(-c6cccnc6)ccnc5[nH]4)c3n2)c1 [compound 344]	3	9840	59.2	> 10000	100
Cc1ccncc1-c1cnc2[nH]nc(-c3cc4c(-c5cccnc5)cncc4[nH]3)c2c1 [compound 345]	3	107	17.4	2250	
Cc1ccncc1-c1ccc2[nH]nc(-c3cc4c(-c5cccnc5)cncc4[nH]3)c2n1 [compound 346]	4	133	149	> 10000	10
CCC(=O)Nc1cncc(-c2cnc3[nH]nc(-c4cc5c(-c6cccnc6)cccc5[nH]4)c3c2)c1 [compound 348]	3	538	671	180	10
CC(C)C(=O)Nc1cncc(-c2ccc3[nH]nc(-c4cc5c(-c6cccnc6)cncc5[nH]4)c3c2)c1 [compound 349]	2	37	34.5	260	
CC(C)C(=O)Nc1cncc(-c2cc3c(-c4cc5c(-c6cccnc6)cccc5[nH]4)n[nH]c3cn2)c1 [compound 350]	11	1900	201	275	10
CCCCC(=O)Nc1cncc(-c2cc3c(-c4cc5c(-c6cccnc6)ccnc5[nH]4)n[nH]c3cn2)c1 [compound 351]	4	9840	52.8	> 10000	10
CC(C)CC(=O)Nc1cncc(-c2cnc3[nH]nc(-c4cc5c(-c6cccnc6)ccnc5[nH]4)c3c2)c1 [compound 352]	3	9840	43.5	> 10000	
CC(C)(C)CC(=O)Nc1cncc(-c2cnc3[nH]nc(-c4cc5c(-c6cccnc6)cncc5[nH]4)c3c2)c1 [compound 353]	3	85	37.3	> 10000	
O=C(Nc1cncc(-c2cc3c(-c4cc5c(-c6cccnc6)cccc5[nH]4)n[nH]c3cn2)c1)C1CC1 [compound 354]	12	537	308	330	100
O=C(Nc1cncc(-c2cnc3[nH]nc(-c4cc5c(-c6cccnc6)cccc5[nH]4)c3c2)c1)C1CCC1 [compound 355]	8	151	41.3	202	
O=C(Nc1cncc(-c2ccc3[nH]nc(-c4cc5c(-c6cccnc6)cncc5[nH]4)c3c2)c1)C1CCCC1 [compound 356]	6	78	45.5	1350	
O=C(Nc1cncc(-c2ccc3[nH]nc(-c4cc5c(-c6cccnc6)nccc5[nH]4)c3c2)c1)c1ccccc1 [compound 357]	3	43	19.4	421	
O=C(Nc1cncc(-c2ccc3[nH]nc(-c4cc5c(-c6cccnc6)cncc5[nH]4)c3c2)c1)c1ccccc1 [compound 358]	7	71	68.5	> 10000	
CC(C)Nc1cncc(-c2ccc3[nH]nc(-c4cc5c(-c6cccnc6)cccc5[nH]4)c3c2)c1 [compound 359]	6	962	226	100	10
CC(C)Nc1cncc(-c2ccc3[nH]nc(-c4cc5c(-c6cccnc6)cncc5[nH]4)c3c2)c1 [compound 360]	4	330	41.9	670	
CC(C)Nc1cncc(-c2ccc3[nH]nc(-c4cc5c(-c6cccnc6)ccnc5[nH]4)c3c2)c1 [compound 361]	5	164	45.5	> 10000	
CC(C)Nc1cncc(-c2cnc3[nH]nc(-c4cc5c(-c6cccnc6)ccnc5[nH]4)c3c2)c1 [compound 362]	4	292	135	> 10000	10
